Source: patent US6734190B2, “Dihydrodipyrazolopyridinylbenzamide and -sulfonamide inhibitors of B7-1” (Wyeth, priority 2002, dated 2004)

How the values were obtained:
B7-1/CD28 = target: T1, B7-1/CD28 (Homo sapiens, UniProt P33681); test: CD28/B7-1 ELISA (B7-1/CD28 binding inhibition); conditions: CD28-Fc coated wells; B7-1-Fc-biotin/streptavidin-alkaline phosphatase detection complex; 1% DMSO
T1 sequence (P33681 35-242 limits assumed): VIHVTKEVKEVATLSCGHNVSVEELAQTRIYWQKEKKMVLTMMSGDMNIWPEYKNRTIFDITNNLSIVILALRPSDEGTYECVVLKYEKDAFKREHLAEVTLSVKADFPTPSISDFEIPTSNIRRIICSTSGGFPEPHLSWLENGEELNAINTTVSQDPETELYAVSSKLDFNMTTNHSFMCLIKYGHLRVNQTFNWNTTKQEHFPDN
Experimental: Evaluation of B7-1/CD28 Binding Inhibition for Test Compounds
Wells are coated with 300 ng CD28-Fc in carbonate buffer (pH 9.4) overnight at 4° C., blocked with 1% bovine serum albumin in tris-buffered saline (TBS) for 1 h at 22° C. and washed 3 times in TBS prior to assay. The detection complex is formed as follows: B7-1-Fc-biotin, prepared using NHS-LC-biotin (Pierce #21335) according to the manufacturers instructions (4.1 moles biotinimole Fc), is added at 0.8 ug/ml to streptavidin-alkaline phosphatase (Caltag Sa1008) at 1:1000 in TBS. A solution of test compound in dimethylsulfoxide (1% final) are added to this complex and incubated 30 min at 22° C. Detection complex (+/−inhibitors) is then added to the CD28 coated wells for 25 min at 22° C., washed 5 times with TBS, developed with the colorimetric substrate pNPP (Pierce #34045) in diethanolamine/MgCl2 buffer (pH 9.5) and read at 405 nm. The inhibition constant (IC50) is calculated by subtracting background binding and comparing to uninhibited (DMSO alone) controls. The inhibition constant represents the concentration of test compound required to achieve 50% inhibition.

| Structure (SMILES) | IC50 (B7-1/CD28) [nM] | melting point |
| --- | --- | --- |
| Cn1ncc2c3[nH]n(-c4ccc(C(=O)Nc5ccc(O)c(O)c5)cc4)c(=O)c3c(-c3cccc(C(F)(F)F)c3)nc21 [Example 98] | 36 | 206 to 209 °C |
| Cn1ncc2c3[nH]n(-c4ccc(Cl)c(C(=O)NCc5ccc(O)c(O)c5)c4)c(=O)c3c(-c3cccc(C(F)(F)F)c3)nc21 [Example 21] | 22 | 212 to 215 °C |
| Cn1ncc2c3[nH]n(-c4cccc(C(=O)N5CCCC5)c4)c(=O)c3c(-c3cccc(C(F)(F)F)c3)nc21 [Example 11, 6-methyl-2-[3-(1-pyrrolidinylcarbonyl)phenyl]-4-[3-(trifluoromethyl)phenyl]-1,6-dihydrodipyrazolo[3,4-b:3,4-d]pyridin-3(2H)-one] | 44 | 255 to 258 °C |
| Cn1ncc2c3[nH]n(-c4ccc(C(=O)Nc5ccc(CCO)cc5)cc4)c(=O)c3c(-c3cccc(C(F)(F)F)c3)nc21 [Example 34] | 23 | 186 to 189 °C |
| CC(O)c1cccc(NC(=O)c2ccc(-n3[nH]c4c(c(-c5cccc(C(F)(F)F)c5)nc5c4cnn5C)c3=O)cc2)c1 (stereo not shown) [Example 25] | 3 | 251 to 254 °C |
| CN(CCC#N)C(=O)c1cccc(-n2[nH]c3c(c(-c4cccc(C(F)(F)F)c4)nc4c3cnn4C)c2=O)c1 [Example 61] | 330 |  |
| CC(O)c1cccc(NC(=O)c2cc(-n3[nH]c4c(c(-c5cccc(C(F)(F)F)c5)nc5c4cnn5C)c3=O)ccc2F)c1 (stereo not shown) [Example 65] | 1000 |  |
| CC(O)c1cccc(NC(=O)c2cccc(-n3[nH]c4c(c(-c5cccc(C(F)(F)F)c5)nc5c4cnn5C)c3=O)c2)c1 (stereo not shown) [Example 51] | 130 |  |
| COC(CN(C)C(=O)c1cccc(-n2[nH]c3c(c(-c4cccc(C(F)(F)F)c4)nc4c3cnn4C)c2=O)c1)OC [Example 8, N-(2,2-dimethoxyethyl)-N-methyl-3-(6-methyl-3-oxo-4-[3-(trfluoromethyl)phenyl]-3,6-dihydrodipyrazolo[3,4-b:3,4-d]pyridin-2(1H)-yl)benzamide] | 31 |  |
| CC(O)CNC(=O)c1cccc(-n2[nH]c3c(c(-c4cccc(C(F)(F)F)c4)nc4c3cnn4C)c2=O)c1 (stereo not shown) [Example 19, N-(2-hydroxypropyl)-3-(6-methyl-3-oxo-4-[3-(trifluoromethyl)phenyl]-3,6-dihydrodipyrazolo[3,4-b:3,4-d]-pyridin-2(1H)-yl)benzamide] | 45 |  |
| COC(=O)[C@H]1CCCN1C(=O)c1cccc(-n2[nH]c3c(c(-c4cccc(C(F)(F)F)c4)nc4c3cnn4C)c2=O)c1 [Example 53] | 270 |  |
| Cn1ncc2c3[nH]n(-c4cccc(C(=O)Nc5ccc(CCO)cc5)c4)c(=O)c3c(-c3cccc(C(F)(F)F)c3)nc21 [Example 55] | 110 |  |
| Cn1ncc2c3[nH]n(-c4ccc(C(=O)N5CCCC5)cc4)c(=O)c3c(-c3cccc(C(F)(F)F)c3)nc21 [Example 81] | 110 |  |
| COc1ccc(CNC(=O)c2cccc(-n3[nH]c4c(c(-c5cccc(C(F)(F)F)c5)nc5c4cnn5C)c3=O)c2)cc1 [Example 60] | 180 |  |
| Cn1ncc2c3[nH]n(-c4cccc(C(=O)Nc5ccc(F)c(F)c5)c4)c(=O)c3c(-c3cccc(C(F)(F)F)c3)nc21 [Example 47] | 280 |  |
| Cn1ncc2c3[nH]n(-c4ccc(C(=O)Nc5ccc(F)c(F)c5)cc4)c(=O)c3c(-c3cccc(C(F)(F)F)c3)nc21 [Example 82] | 120 |  |
| Cn1ncc2c3[nH]n(-c4ccc(S(=O)(=O)NCCCCCO)cc4)c(=O)c3c(-c3cccc(C(F)(F)F)c3)nc21 [Example 102, N-(5-Hydroxypentyl)-4-{6-methyl-3-oxo-4-[3-(trifluoromethyl)phenyl]-3,6-dihydrodipyrazolo[3,4-b:3′,4′-d]pyridin-2(1H)-yl}benzenesulfonamide] | 670 |  |
| COC(=O)CNS(=O)(=O)c1ccc(-n2[nH]c3c(c(-c4cccc(C(F)(F)F)c4)nc4c3cnn4C)c2=O)cc1 [Example 105, methyl ({[4-(6-methyl-3-oxo-4-[3-(trifluoromethyl)phenyl]-3,6-dihydrodipyrazolo[3,4-b:3,4-d]pyridin-2(1H)-yl)phenyl]sulfonyl}amino)acetate] | 340 |  |
| Cn1ncc2c3[nH]n(-c4cccc(C(=O)NCc5ccccc5)c4)c(=O)c3c(-c3cccc(C(F)(F)F)c3)nc21 [Example 49] | 120 |  |
| CN(CCO)C(=O)c1cccc(-n2[nH]c3c(c(-c4cccc(C(F)(F)F)c4)nc4c3cnn4C)c2=O)c1 [Example 14] | 61 |  |
| Cn1ncc2c3[nH]n(-c4ccc(C(=O)Nc5ccccc5O)cc4)c(=O)c3c(-c3cccc(C(F)(F)F)c3)nc21 [Example 74, N-(2-hydroxyphenyl)-4-{6-methyl-3-oxo-3-[3-(trfluoromethyl)phenyl]-3,6-dihydrodipyrazolo[3,4-b:3′,4′-d]pyridin-2(1H)-yl}benzamide] | 17 |  |

Further compounds by falling IC50 (B7-1/CD28), results first:

| IC50 (B7-1/CD28) [nM] | melting point | Structure (SMILES) |
| --- | --- | --- |
| 1200 |  | Cn1ncc2c3[nH]n(-c4ccc(C(=O)N5CCC(O)CC5)cc4)c(=O)c3c(-c3cccc(C(F)(F)F)c3)nc21 [Example 94] |
| 140 | 234.5 to 236 °C | Cn1ncc2c3[nH]n(-c4ccc(C(=O)NCCCCCN)cc4)c(=O)c3c(-c3cccc(C(F)(F)F)c3)nc21 [Example 39] |
| 120 |  | CC(C)c1ccc(NC(=O)c2ccc(-n3[nH]c4c(c(-c5cccc(C(F)(F)F)c5)nc5c4cnn5C)c3=O)cc2)cc1 [Example 78] |
| 110 | > 350 °C | CC(O)c1cccc(NC(=O)c2ccc(-n3[nH]c4c(c(-c5cccc(C(F)(F)F)c5)nc5c4cnn5C)c3=O)cc2F)c1 (stereo not shown) [Example 24] |
| 110 |  | CCN(CC)C(=O)C1CCCN(C(=O)c2cccc(-n3[nH]c4c(c(-c5cccc(C(F)(F)F)c5)nc5c4cnn5C)c3=O)c2)C1 (stereo not shown) [Example 58] |
| 107 |  | Cn1ncc2c3[nH]n(-c4ccc(C(=O)NCC5CC5)cc4)c(=O)c3c(-c3cccc(C(F)(F)F)c3)nc21 [Example 75] |
| 98 | 193 to 195 °C | Cn1ncc2c3[nH]n(-c4ccc(C(=O)NCCCO)cc4)c(=O)c3c(-c3cccc(C(F)(F)F)c3)nc21 [Example 28] |
| 90 | 187 °C (dec.) | COC(=O)C1CCN(C(=O)c2ccc(-n3[nH]c4c(c(-c5cccc(C(F)(F)F)c5)nc5c4cnn5C)c3=O)cc2)CC1 [Example 26] |
| 80 |  | Cn1ncc2c3[nH]n(-c4cccc(C(=O)NCC5CC5)c4)c(=O)c3c(-c3cccc(C(F)(F)F)c3)nc21 [Example 12] |
| 67 |  | Cn1ncc2c3[nH]n(-c4ccc(C(=O)NCc5ccc(F)cc5)cc4)c(=O)c3c(-c3cccc(C(F)(F)F)c3)nc21 [Example 91] |
| 63 |  | COC(=O)c1cn(C(=O)c2cccc(-n3[nH]c4c(c(-c5cccc(C(F)(F)F)c5)nc5c4cnn5C)c3=O)c2)c2ccccc12 [Example 15] |
| 62 |  | COCCNC(=O)c1cccc(-n2[nH]c3c(c(-c4cccc(C(F)(F)F)c4)nc4c3cnn4C)c2=O)c1 [Example 20] |
| 44 | 214 to 218 °C | Cn1ncc2c3[nH]n(-c4ccc(Cl)c(C(=O)N5CCC[C@@H]5C(=O)O)c4)c(=O)c3c(-c3cccc(C(F)(F)F)c3)nc21 [Example 22, 1-{2-chloro-5-[6-methyl-3-oxo-4-[3-(trifluoromethyl)pheny]-3,6-dihydrodipyrazolo[3,4-b:3′,4′-d]pyridin-2(1H)-yl]benzoyl}-D-proline] |
| 44 | 300 °C (dec.) | CC(=O)c1cccc(NC(=O)c2ccc(-n3[nH]c4c(c(-c5cccc(C(F)(F)F)c5)nc5c4cnn5C)c3=O)cc2)c1 [Example 38] |
| 43 |  | Cn1ncc2c3[nH]n(-c4ccc(Cl)c(C(=O)N5CCC[C@@H]5CO)c4)c(=O)c3c(-c3cccc(C(F)(F)F)c3)nc21 [Example 23, 2-(4-chloro-3-{[(2R)-2-(hydroxymethyl)pyrrolidin-1-yl]carbonyl}phenyl)-6-methyl-4-[3-(trifluoromethyl)phenyl]-1,6-dihydrodipyrazolo[3,4-b:3,4-d]pyridin-3(2H)-one] |
| 20 | 199 to 202 °C | Cn1ncc2c3[nH]n(-c4cccc(C(=O)N5CCC[C@@H]5C(=O)O)c4)c(=O)c3c(-c3cccc(C(F)(F)F)c3)nc21 [Example 13, (2R)-1-[3-(6-methyl-3-oxo-4-[3-(trifluoromethyl)phenyl]-3,6-dihydrodipyrazolo[3,4-b:3,4-d]pyridin-2(1H)-yl)benzoyl]-2-pyrrolidinecarboxylic acid] |
| 17 |  | Cn1ncc2c3[nH]n(-c4ccc(C(=O)Nc5cccc(CO)c5)cc4)c(=O)c3c(-c3cccc(C(F)(F)F)c3)nc21 [Example 35, N-[3-(hydroxymethyl)phenyl]4-(6-methyl-3-oxo-4-[3-(trifluoromethyl)phenyl]-3,6-dihydrodipyrazolo[3,4-b:3,4-d]pyridin-2(1H)-yl)benzamide] |
| 9 | 177.7 to 179.8 °C | Cn1ncc2c3[nH]n(-c4cccc(C(=O)NCc5ccc(O)c(O)c5)c4)c(=O)c3c(-c3cccc(C(F)(F)F)c3)nc21 [Example 18, N-(3,4-dihydroxybenzyl)-3-(6-methyl-3-oxo-4-[3-(trifluoromethyl)phenyl]-3,6-dihydrodipyrazolo[3,4-b:3,4-d]pyridin-2(1H)-yl)benzamide] |
